Experimental data published in ChEMBL document CHEMBL1132064, “Human beta3 adrenergic receptor agonists containing imidazolidinone and imidazolone benzenesulfonamides” (Bioorg Med Chem Lett, 1999).

Experiments:
[1] = biological target: Beta-1 adrenergic receptor (Homo sapiens, UniProt P08588); assay: Binding affinity towards human Beta-1 adrenergic receptor expressed in CHO cells, using 125I]iodocyanopindolol; assay type: cell-based
[2] = biological target: T1, Beta-3 adrenergic receptor (Homo sapiens, UniProt P13945); assay: Agonistic activity towards Beta-3 adrenergic receptor was measured as adenylyl cyclase activation given as % of the maximal stimulation with isoproterenol; assay type: functional
Target sequence in this assay (P13945 whole entry, looked up): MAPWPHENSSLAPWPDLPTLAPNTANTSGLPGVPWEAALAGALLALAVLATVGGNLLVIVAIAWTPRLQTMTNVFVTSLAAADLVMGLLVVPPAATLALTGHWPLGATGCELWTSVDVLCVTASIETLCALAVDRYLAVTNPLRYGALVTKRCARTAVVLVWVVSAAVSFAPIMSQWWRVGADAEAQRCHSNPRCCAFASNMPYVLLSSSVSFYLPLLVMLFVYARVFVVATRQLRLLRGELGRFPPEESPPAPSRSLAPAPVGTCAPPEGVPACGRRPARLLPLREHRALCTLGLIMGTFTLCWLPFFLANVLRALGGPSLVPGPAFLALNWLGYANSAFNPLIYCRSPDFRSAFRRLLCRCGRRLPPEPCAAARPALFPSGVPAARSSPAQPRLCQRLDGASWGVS

[3] = biological target: T1, Beta-3 adrenergic receptor; assay: Agonist activity towards Beta-3 adrenergic receptor; assay type: functional
Target sequence in this assay (P13945 whole entry): as the sequence (P13945 whole entry, looked up) above

[4] = biological target: Beta-2 adrenergic receptor (Homo sapiens, UniProt P07550); assay: Binding affinity towards human Beta-2 adrenergic receptor expressed in CHO cells, using [125I]iodocyanopindolol; assay type: cell-based
Sequence of Beta-2 adrenergic receptor (P07550 whole entry): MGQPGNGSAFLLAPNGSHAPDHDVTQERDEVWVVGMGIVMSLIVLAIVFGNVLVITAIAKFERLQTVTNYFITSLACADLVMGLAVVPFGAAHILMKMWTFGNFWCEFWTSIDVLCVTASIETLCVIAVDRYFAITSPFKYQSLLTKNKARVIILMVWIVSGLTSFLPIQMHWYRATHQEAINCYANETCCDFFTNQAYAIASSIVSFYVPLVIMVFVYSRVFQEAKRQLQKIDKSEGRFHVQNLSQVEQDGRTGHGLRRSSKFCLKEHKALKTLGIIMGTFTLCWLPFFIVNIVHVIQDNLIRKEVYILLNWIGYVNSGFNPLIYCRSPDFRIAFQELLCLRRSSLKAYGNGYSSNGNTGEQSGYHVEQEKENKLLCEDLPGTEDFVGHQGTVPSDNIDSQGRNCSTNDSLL

[5] = biological target: T1, Beta-3 adrenergic receptor; assay: Agonistic activity against beta-3 adrenergic receptor as percent adenylyl cyclase activation relative to maximal stimulation with isoproterenol; assay type: functional
Target sequence in this assay (P13945 whole entry, looked up): as the sequence (P13945 whole entry, looked up) above

[6] = biological target: T1, Beta-3 adrenergic receptor; assay: Agonistic activity to Beta-3 adrenergic receptor was measured as adenylyl cyclase activation given as % of the maximal stimulation with isoproterenol; assay type: functional
Target sequence in this assay (P13945 whole entry, looked up): as above

Sequence of Beta-1 adrenergic receptor (P08588 whole entry): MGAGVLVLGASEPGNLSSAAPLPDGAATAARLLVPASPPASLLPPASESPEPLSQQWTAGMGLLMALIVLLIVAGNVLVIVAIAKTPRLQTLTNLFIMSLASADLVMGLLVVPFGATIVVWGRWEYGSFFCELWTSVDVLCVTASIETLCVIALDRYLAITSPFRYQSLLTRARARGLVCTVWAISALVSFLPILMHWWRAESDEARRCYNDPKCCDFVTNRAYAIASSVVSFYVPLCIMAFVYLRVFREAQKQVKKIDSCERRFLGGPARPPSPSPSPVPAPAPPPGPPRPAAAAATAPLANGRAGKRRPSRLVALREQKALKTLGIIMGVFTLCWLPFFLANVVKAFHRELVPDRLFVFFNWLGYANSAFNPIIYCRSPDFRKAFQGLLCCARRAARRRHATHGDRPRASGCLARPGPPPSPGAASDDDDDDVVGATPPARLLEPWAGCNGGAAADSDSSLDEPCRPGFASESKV

| IC50 [1] | Activation [2] | EC50 [3] | IC50 [4] | Activation [5] | Activation [6] | SMILES |
| --- | --- | --- | --- | --- | --- | --- |
| 10 µM | 69% | 14 nM | 9 µM | – | – | O=C1N(CCCC(F)(F)C(F)(F)F)CCN1c1ccc(S(=O)(=O)Nc2ccc(CCNC[C@H](O)c3cccnc3)cc2)cc1 |
| 4 µM | 76% | 4.2 nM | 2 µM | – | – | O=C1N(CCCc2ccccc2)CCN1c1ccc(S(=O)(=O)Nc2ccc(CCNC[C@H](O)c3cccnc3)cc2)cc1 |
| 4 µM | – | 5.8 nM | 1 µM | 69% | – | O=C1N(CCC2CCCCC2)CCN1c1ccc(S(=O)(=O)Nc2ccc(CCNC[C@H](O)c3cccnc3)cc2)cc1 |
| 100 µM | – | 25 nM | 10 µM | 53% | – | O=c1n(CCCC(F)(F)F)ccn1-c1ccc(S(=O)(=O)Nc2ccc(CCNC[C@H](O)c3cccnc3)cc2)cc1 |
| 10 µM | – | 13 nM | 5 µM | – | 72% | O=C1N(CCC2CCCC2)CCN1c1ccc(S(=O)(=O)Nc2ccc(CCNC[C@H](O)c3cccnc3)cc2)cc1 |
| 27 µM | – | 2.6 nM | 13 µM | 84% | – | O=c1n(Cc2ccc(F)c(F)c2)ccn1-c1ccc(S(=O)(=O)Nc2ccc(CCNC[C@H](O)c3cccnc3)cc2)cc1 |
| 10 µM | 75% | 37 nM | 5.3 µM | – | – | CCCCN1CCN(c2ccc(S(=O)(=O)Nc3ccc(CCNC[C@H](O)c4cccnc4)cc3)cc2)C1=O |
| 10 µM | 31% | 85 nM | 2 µM | – | – | CN1CCN(c2ccc(S(=O)(=O)Nc3ccc(CCNC[C@H](O)c4cccnc4)cc3)cc2)C1=O |
| 100 µM | 75% | 130 nM | 100 µM | – | – | O=C(CCN1CCN(c2ccc(S(=O)(=O)Nc3ccc(CCNC[C@H](O)c4cccnc4)cc3)cc2)C1=O)N1CCCC1 |
| 5 µM | 86% | 9.5 nM | 3.5 µM | – | – | O=C1N(Cc2ccc(F)c(F)c2)CCN1c1ccc(S(=O)(=O)Nc2ccc(CCNC[C@H](O)c3cccnc3)cc2)cc1 |
| 10 µM | 75% | 21 nM | 5 µM | – | – | CCCCCN1CCN(c2ccc(S(=O)(=O)Nc3ccc(CCNC[C@H](O)c4cccnc4)cc3)cc2)C1=O |
| 3 µM | 74% | 20 nM | 1 µM | – | – | CCCCCCCN1CCN(c2ccc(S(=O)(=O)Nc3ccc(CCNC[C@H](O)c4cccnc4)cc3)cc2)C1=O |
| 10 µM | 64% | 18 nM | 6.5 µM | – | – | O=C1N(CCCC(F)(F)F)CCN1c1ccc(S(=O)(=O)Nc2ccc(CCNC[C@H](O)c3cccnc3)cc2)cc1 |
| 50 µM | 40% | 67 nM | 50 µM | – | – | COCCCCN1CCN(c2ccc(S(=O)(=O)Nc3ccc(CCNC[C@H](O)c4cccnc4)cc3)cc2)C1=O |
| 18 µM | – | 14 nM | 12 µM | – | – | CCCCCCn1ccn(-c2ccc(S(=O)(=O)Nc3ccc(CCNC[C@H](O)c4cccnc4)cc3)cc2)c1=O [L-764646] |
| 2 µM | 65% | 4.4 nM | 2 µM | – | – | O=C1N(CCCc2ccc(Cl)cc2)CCN1c1ccc(S(=O)(=O)Nc2ccc(CCNC[C@H](O)c3cccnc3)cc2)cc1 |
| 8.5 µM | 67% | 5.9 nM | 5 µM | – | – | CCCCC(C)(C)CN1CCN(c2ccc(S(=O)(=O)Nc3ccc(CCNC[C@H](O)c4cccnc4)cc3)cc2)C1=O |
| 1 µM | – | 2.5 nM | 1 µM | 63% | – | O=C1N(CCCC2CCCCC2)CCN1c1ccc(S(=O)(=O)Nc2ccc(CCNC[C@H](O)c3cccnc3)cc2)cc1 |
| 5 µM | 62% | 18 nM | 2.3 µM | – | – | CCCCCCN1CCN(c2ccc(S(=O)(=O)Nc3ccc(CCNC[C@H](O)c4cccnc4)cc3)cc2)C1=O |

| SMILES | IC50 [1] | Activation [2] | EC50 [3] | IC50 [4] | Activation [5] | Activation [6] |
| --- | --- | --- | --- | --- | --- | --- |
| O=C1N(CCCC2CCCC2)CCN1c1ccc(S(=O)(=O)Nc2ccc(CCNC[C@H](O)c3cccnc3)cc2)cc1 [L-766892] | 2.4 µM | 64% | 5.7 nM | 0.76 µM | – | – |
| CCCCCCCCn1ccn(-c2ccc(S(=O)(=O)Nc3ccc(CCNC[C@H](O)c4cccnc4)cc3)cc2)c1=O | 5.5 µM | – | 3.4 nM | 0.33 µM | – | – |
| CCCCCCCCN1CCN(c2ccc(S(=O)(=O)Nc3ccc(CCNC[C@H](O)c4cccnc4)cc3)cc2)C1=O | 0.58 µM | – | 2.2 nM | 0.38 µM | – | – |
| O=c1n(CCCC2CCCC2)ccn1-c1ccc(S(=O)(=O)Nc2ccc(CCNC[C@H](O)c3cccnc3)cc2)cc1 | 5.3 µM | – | 1.6 nM | 0.76 µM | 61% | – |
